Values quoted from earlier work as cited in US8509867B2, “Non-invasive measurement of analytes” (Cercacor Laboratories, Inc., priority 2002, dated 2013).

What was measured:
[1] = i.v., rats (Merck)

For `COC(=O)c1ccccc1-c1c2ccc(=N)cc-2oc2cc(N)ccc12` [Rh123, (2-(6-Amino-3-imino-3H-xanthen-9-yl)benzoic acid methyl ester)], the “intravenous lethal dose for animals (LD10)” value is given as “approximately 20 mg/kg of body weight” and the “fifty percent lethality (LD50)” value [1] is given as 89.5 mg/kg.
